Measurements published in patent US10087192B2, “2-(het)aryl-substituted fused bicyclic heterocycle derivatives as pesticides” (BAYER CROPSCIENCE AKTIENGESELLSCHSAFT, priority 2015, dated 2018).
Where two headings read alike, the source gives them in different places.

Experiments:
[1] = system: Phaedon cochleariae; assay: Phaedon cochleariae spray test; assay type: in vivo; conditions: 500 g/ha, after 7 days, larvae on Chinese cabbage leaf discs
Procedure: Phaedon cochleariae—Spray Test
(§1) Solvent: 78.0 parts by weight of acetone • • 1.5 parts by weight of dimethylformamide
(§2) Emulsifier: alkylaryl polyglycol ether
(§3) To produce a suitable preparation of active compound, 1 part by weight of active compound is dissolved using the stated parts by weight of solvent and made up with water containing an emulsifier concentration of 1000 ppm until the desired concentration is attained. To produce further test concentrations, the preparation is diluted with emulsifier-containing water.
After 7 days, the efficacy in % is determined. 100% means that all the beetle larvae have been killed; 0% means that no beetle larvae have been killed.

[2] = system: Lucilia cuprina; assay: Lucilia cuprina test; assay type: in vivo; conditions: 100 ppm, after 2 days, L1 larvae
Procedure: (§4) Solvent: dimethyl sulphoxide
(§5) To produce a suitable preparation of active compound, 10 mg of active compound are mixed with 0.5 ml of dimethyl sulphoxide, and the concentrate is diluted with water to the desired concentration.
About 20 L1 larvae of the Australian sheep blowfly (Lucilia cuprina) are transferred into a test vessel containing minced horsemeat and the active compound preparation of the desired concentration.
After 2 days, the kill in % is determined. 100% means that all the larvae have been killed; 0% means that no larvae have been killed.

[3] = system: Musca domestica; assay: Musca domestica test; assay type: in vivo; conditions: after 2 days, adult houseflies
Procedure: as §4, §5
Vessels containing a sponge treated with sugar solution and the active compound preparation of the desired concentration are populated with 10 adult houseflies (Musca domestica).
After 2 days, the kill in % is determined. 100% means that all of the flies have been killed; 0% means that none of the flies have been killed.

[4] = system: Boophilus microplus; assay: Boophilus microplus injection test; assay type: in vivo; conditions: 20 μg/animal, assessed after 7 days
Procedure: Boophilus microplus—Injection Test
as §4
To produce a suitable preparation of active compound, 10 mg of active compound are mixed with 0.5 ml of solvent and the concentrate is diluted with solvent to the desired concentration.
1 μl of the active compound solution is injected into the abdomen of 5 engorged adult female cattle ticks (Boophilus microplus). The animals are transferred into dishes and kept in a climate-controlled room.
Efficacy is assessed after 7 days by laying of fertile eggs. Eggs which are not visibly fertile are stored in a climate-controlled cabinet until the larvae hatch after about 42 days. An efficacy of 100% means that none of the ticks has laid any fertile eggs; 0% means that all the eggs are fertile.

[5] = system: Myzus persicae; assay: Myzus persicae spray test (Chinese cabbage leaf discs); assay type: in vivo; conditions: 500 g/ha, after 6 days
Procedure: Myzus persicae—Spray Test Solvent: 78 parts by weight of acetone • • 1.5 parts by weight of dimethylformamide Emulsifier: alkylaryl polyglycol ether […] To produce further test concentrations, the preparation is diluted with emulsifier-containing water. Discs of Chinese cabbage leaves (Brassica pekinensis) infested by all stages of the green peach aphid (Myzus persicae) are sprayed with an active compound preparation of the desired concentration.

[6] = system: Spodoptera frugiperda; assay: Spodoptera frugiperda spray test (maize leaf discs); assay type: in vivo; conditions: 500 g/ha, after 7 days, caterpillars on maize leaf discs
Procedure: Spodoptera frugiperda—Spray Test Solvent: 78.0 parts by weight of acetone • • 1.5 parts by weight of dimethylformamide Emulsifier: alkylaryl polyglycol ether […] To produce further test concentrations, the preparation is diluted with emulsifier-containing water. Leaf discs of maize (Zea mays) are sprayed with an active compound preparation of the desired concentration and, after drying, populated with caterpillars of the armyworm (Spodoptera frugiperda).

[7] = system: Ctenocephalides felis; assay: Ctenocephalides felis oral test; assay type: in vivo; conditions: 100 ppm in citrated cattle blood, after 2 days
Source text: Ctenocephalides felis—Oral Test Solvent: dimethyl sulphoxide […] Dilution with citrated cattle blood gives the desired concentration. About 20 unfed adult cat fleas (Ctenocephalides felis) are placed into a chamber which is closed at the top and bottom with gauze. A metal cylinder whose bottom end is closed with parafilm is placed onto the chamber. The cylinder contains the blood/active compound preparation, which can be imbibed by the fleas through the parafilm membrane.

[8] = system: Ctenocephalides felis; assay: Ctenocephalides felis in vitro contact test with adult cat fleas; assay type: in vivo; conditions: 5 μg/cm^2 (500 g/ha), after 48 h
Procedure: Ctenocephalides felis—In Vitro Contact Tests with Adult Cat Fleas
For the coating of the test tubes, 9 mg of active compound are first dissolved in 1 ml of acetone p.a. and then diluted to the desired concentration with acetone p.a. 250 μl of the solution are distributed homogeneously on the inner walls and the base of a 25 ml test tube by turning and rocking on an orbital shaker (rocking rotation at 30 rpm for 2 h). With 900 ppm active compound solution and internal surface 44.7 cm^2, given homogeneous distribution, an area-based dose of 5 μg/cm^2 is achieved.
After the solvent has evaporated off, the tubes are populated with 5-10 adult cat fleas (Ctenocephalides felis), sealed with a perforated plastic lid and incubated in a horizontal position at room temperature and ambient humidity. After 48 h, efficacy is determined. To this end, the test tubes are stood upright and the fleas are knocked to the base of the tube. Fleas which remain motionless at the base or move in an uncoordinated manner are considered to be dead or moribund.
100% efficacy means that all the fleas were dead or moribund. 0% efficacy means that no fleas were harmed.

[9] = log P by HPLC on reversed-phase column (EEC Directive 79/831 Annex V.A8); assay type: physicochemical; conditions: pH 7.8, 0.001 molar aqueous ammonium hydrogencarbonate/acetonitrile, 55° C., read-out: log P (neutral)
Source text: Called log P (neutral) in the table.

[10] = system: Tetranychus urticae; assay: Tetranychus urticae spray test, OP-resistant; assay type: in vivo; conditions: after 6 days, bean leaf discs
Procedure: Tetranychus urticae—Spray Test, OP-Resistant
as §1, §2, §3
Discs of bean leaves (Phaseolus vulgaris) infested with all stages of the greenhouse red spider mite (Tetranychus urticae) are sprayed with an active compound preparation of the desired concentration.
After 6 days, the efficacy in % is determined. 100% means that all the spider mites have been killed; 0% means that no spider mites have been killed.

[11] = system: Meloidogyne incognita; assay: Meloidogyne incognita test; assay type: in vivo; conditions: 20 ppm, after 14 days, lettuce
Procedure: Meloidogyne incognita Test
Solvent: 125.0 parts by weight of acetone
To produce a suitable preparation of active compound, 1 part by weight of active compound is mixed with the stated amount of solvent and the concentrate is diluted with water to the desired concentration.
Vessels are filled with sand, active compound solution, an egg/larvae suspension of the southern root-knot nematode (Meloidogyne incognita) and lettuce seeds. The lettuce seeds germinate and the plants develop. The galls develop on the roots.
After 14 days, the nematicidal efficacy in % is determined by the formation of galls. 100% means that no galls were found; 0% means that the number of galls on the treated plants corresponds to the untreated control.

[12] = reversed-phase HPLC column (C18)

| SMILES | efficacy [1] [%] | efficacy (kill) [2] [%] | efficacy (kill) ([3]; 100 ppm) [%] | efficacy (laying of fertile eggs) [4] [%] | efficacy [5] [%] | efficacy [6] [%] | efficacy (kill) [7] [%] | other results |
| --- | --- | --- | --- | --- | --- | --- | --- | --- |
| CCS(=O)(=O)c1ccc(-n2ccc(C(F)F)n2)nc1-c1nc2cc(C(F)(F)F)ncc2n1C [Example 8] | 100 | 100 | 100 | 95 | 100 | 100 | 95 | efficacy [8]: 100% |
| CCS(=O)(=O)c1ccc(-n2cc(C(F)(F)F)cn2)nc1-c1nc2cc(C(F)(F)F)ncc2n1C [Example 26, 2-[3-Ethylsulphonyl-6-[4-(trifluoromethyl)pyrazol-1-yl]-2-pyridyl]-3-methyl-6-(trifluoromethyl)-imidazo[4,5-c]pyridine] | 100 | 100 | 90 | – | – | 100 | – | chromatographic logP [9, 12]: 3.34 |
| Cn1c(-c2nc(Cl)ccc2Cl)nc2cc(C(F)(F)F)ncc21 [2-(3,6-Dichloro-2-pyridyl)-3-methyl-6-(trifluoromethyl)imidazo[4,5-c]pyridine] | – | – | – | – | – | – | – | chromatographic logP [9]: 2.81 |
| CCS(=O)(=O)c1ccc(-n2ccc(C[S+](C)[O-])n2)nc1-c1nc2cc(C(F)(F)F)ncc2n1C (stereo not shown) [Example 49] | 100 | – | – | – | 90 | – | – | efficacy ([10]; 500 g/ha): 90% |
| CCS(=O)(=O)c1ccc(-c2cccs2)nc1-c1nc2cc(C(F)(F)F)ncc2n1C [Example 79] | – | – | – | – | – | – | – | efficacy ([10]; 100 g/ha): 90% |
| CNc1cnc(C(F)(F)C(F)(F)F)cc1N [II-1, N3-Methyl-6-(1,1,2,2,2-pentafluoroethyl)pyridine-3,4-diamine] | – | – | – | – | – | – | – | chromatographic logP [9, 12]: 1.68 |
| CCS(=O)(=O)c1ccc(-n2cc(F)cn2)nc1-c1nc2cc(C(F)(F)C(F)(F)F)ncc2n1C [Example 59] | 100 | 100 | 95 | 90 | – | 100 | 100 | – |
| CCS(=O)(=O)c1ccc(-c2ccncc2)nc1-c1nc2cc(C(F)(F)F)ncc2n1C [Example 78] | 100 | – | – | – | – | – | – | efficacy ([10]; 100 g/ha): 90% |
| CCSc1ccc(Cl)nc1-c1nc2cc(C(F)(F)F)ncc2n1C [2-(6-Chloro-3-ethylsulphanyl-2-pyridyl)-3-methyl-6-(trifluoromethyl)imidazo[4,5-c]pyridine] | – | – | – | – | – | – | – | chromatographic logP [9, 12]: 3.06 |
| CCS(=O)(=O)c1ccc(-c2cnc(Cl)n2C)nc1-c1nc2cc(C(F)(F)F)ncc2n1C [Example 81] | 100 | – | – | – | 90 | 83 | – | nematicidal efficacy (formation of galls) [11]: 100% |
| CCS(=O)(=O)c1ccc(-n2cc(C(F)(F)F)nn2)nc1-c1nc2cc(C(F)(F)F)ncc2n1C [Example 24] | – | 100 | 80 | 80 | – | 100 | – | – |
| CCS(=O)(=O)c1ccc(-n2cnc(S(C)(=O)=O)n2)nc1-c1nc2cc(C(F)(F)F)ncc2n1C [Example 5] | 100 | – | – | 90 | 90 | – | – | efficacy ([10]; 500 g/ha): 90% |
| CCS(=O)(=O)c1ccc(-n2cc(Cl)cn2)nc1-c1nc2cc(C(F)(F)F)ncc2n1C [Example 36] | 100 | 100 | 85 | 90 | – | 100 | 100 | – |
| CCS(=O)(=O)c1ccc(-n2cnc(Cl)n2)nc1-c1nc2cc(C(F)(F)F)ncc2n1C [Example 18] | 100 | 100 | – | – | 100 | – | 100 | efficacy (kill) ([3]; 20 ppm): 100%; efficacy [8]: 100% |
| CCS(=O)(=O)c1ccc(-n2cc(C#N)cn2)nc1-c1nc2cc(C(F)(F)F)ncc2n1C [Example 19] | 100 | 100 | 100 | – | 90 | 100 | 100 | – |
| CCS(=O)(=O)c1ccc(-n2ccc(C#N)n2)nc1-c1nc2cc(C(F)(F)F)ncc2n1C [Example 22] | 100 | 100 | 80 | 80 | – | 100 | 100 | – |
| CCS(=O)(=O)c1ccc(Cl)nc1-c1nc2cc(C(F)(F)F)ncc2n1C [2-(6-Chloro-3-ethylsulphonyl-2-pyridyl)-3-methyl-6-(trifluoromethyl)imidazo[4,5-c]pyridine] | – | – | – | – | – | – | – | chromatographic logP [9, 12]: 2.54 |
| CCS(=O)(=O)c1ccc(-c2ccco2)nc1-c1nc2cc(C(F)(F)F)ncc2n1C [Example 80] | – | – | – | – | – | – | – | efficacy ([10]; 500 g/ha): 90% |
| CCS(=O)(=O)c1ccc(-n2ccnc2)nc1-c1nc2cc(C(F)(F)F)ncc2n1C [Example 33] | 100 | – | – | 80 | 90 | – | 100 | efficacy [8]: 100%; efficacy ([10]; 500 g/ha): 90% |
| CCS(=O)(=O)c1ccc(-n2ccc(CS(C)(=O)=O)n2)nc1-c1nc2cc(C(F)(F)F)ncc2n1C [Example 40] | 100 | – | – | – | 90 | – | – | efficacy ([10]; 500 g/ha): 90% |
| CCS(=O)(=O)c1ccc(-c2ccsc2)nc1-c1nc2cc(C(F)(F)F)ncc2n1C [Example 20, 2-[3-Ethylsulphonyl-6-(3-thienyl)-2-pyridyl]-3-methyl-6-(trifluoromethyl)imidazo[4,5-c]pyridine] | – | 100 | – | – | – | – | – | chromatographic logP [9, 12]: 3.13 |
| CCS(=O)(=O)c1ccc(-n2cc(C3CC3)cn2)nc1-c1nc2cc(C(F)(F)F)ncc2n1C [Example 13] | 100 | 100 | 100 | – | – | 100 | 80 | – |
